Data from US5308766A (priority 1990, dated 1994).

How the values were obtained:
[1] = biological target: PLA2 obtained from cobra venom (N. naja naja) (Naja naja, UniProt P15445); type: biochemical
[2] = biological target: phospholipase A2 obtained from cobra venom (Naja naja, UniProt P15445); type: biochemical
[3] = Stability of p-nitrophenyl esters in solvents; type: physicochemical; details: polar solvents such as alcohols
Protocol: Pure samples of 1a-1e were obtained after HPLC chromatography using anhydrous MeOH to elute the lipid from a Brownlee C18 column. […] Storage of these compounds at -10° C. in CHCl3 or CH2 Cl2 greatly enhances the stability. Therefore, HPLC-purified SIBLINKS were immediately transferred to CHCl3 for storage. In an aqueous environment, the stability is enhanced when incorporated into vesicles or Triton micelles. The following are representative spectral data for lipids 1b, 1c, 1d and 1e containing a decanoyl (C10) chain moiety at the sn-1 position.

[4] = biological target: phospholipase A2 obtained from cobra venom (Naja naja naja) (Naja naja, UniProt P15445); type: biochemical
PLA2 = details: modification of lysine residues; cited from earlier work
[5] = biological target: cobra venom phospholipase A2 (PLA2) (Naja naja, UniProt P15445); details: cited from earlier work
[6] = in vivo; cited from earlier work
[7] = biological target: bee venom phospholipase A2 (PLA2) (Apis mellifera, UniProt P00630); details: cited from earlier work
bee venom phospholipase A2 (PLA2), sequence (P00630 34-167 limits assumed): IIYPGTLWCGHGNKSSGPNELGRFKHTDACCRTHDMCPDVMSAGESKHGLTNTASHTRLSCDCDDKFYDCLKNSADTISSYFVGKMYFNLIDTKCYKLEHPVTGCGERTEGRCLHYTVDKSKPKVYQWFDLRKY

phospholipase A2 obtained from cobra venom, sequence (P15445 whole entry, looked up): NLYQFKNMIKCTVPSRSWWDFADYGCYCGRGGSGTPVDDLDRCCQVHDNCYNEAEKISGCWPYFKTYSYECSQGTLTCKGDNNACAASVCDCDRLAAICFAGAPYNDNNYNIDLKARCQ
PLA2 obtained from cobra venom (N. naja naja), sequence (P15445 whole entry, looked up): as above
phospholipase A2 obtained from cobra venom (Naja naja naja), sequence (P15445 whole entry, looked up): as above
cobra venom phospholipase A2 (PLA2), sequence (P15445 whole entry, looked up): as above

Structure (SMILES)	V, initial velocity for release of p-nitrophenol [1] [µmol/min/mg]	efficiency of enzymatic deactivation (suicide inhibition) [2]	stability of p-nitrophenyl ester [3]	effect on P of raising preincubation temperature [2]	effect on inactivation time course of raising preincubation temperature [2]	other results
CCCCCCCCCC(=O)OC[C@H](COP(=O)([O-])OCC[N+](C)(C)C)OC(=O)CC(C)(C)CC(=O)Oc1ccc([N+](=O)[O-])cc1 [1c]	0.002	more efficient suicide inhibitors	–	–	–	–
CCCCCCCCCC(=O)OC[C@H](COP(=O)([O-])OCC[N+](C)(C)C)OC(=O)CCC(=O)Oc1ccc([N+](=O)[O-])cc1 [1d]	0.6	less efficient, but is processed faster	especially prone to hydrolysis	did increase P	little effect	concentration below which mixed micelles do not inhibit [2]: 20 NM; ratio of inhibitor/PLA2 needed to observe inhibition [2]: > 40
CCCCCCCCCC(=O)OC[C@H](COP(=O)([O-])OCC[N+](C)(C)C)OC(=O)CC(C)(C)C(=O)Oc1ccc([N+](=O)[O-])cc1 [1e]	0.005	more efficient suicide inhibitors	–	–	–	–
CCCCCCCCCC(=O)OC[C@H](COP(=O)([O-])OCC[N+](C)(C)C)OC(=O)CCCC(=O)Oc1ccc([N+](=O)[O-])cc1 [compound 1a]	155	–	especially prone to hydrolysis	–	–	change of hydrolysis rate with Triton/phospholipid surface ratio [4]: diminishes three-fold; concentration of substrate required to reach half saturation, versus DPPC [4]: lower concentration of substrate
CCCCCCCCCC(=O)OC[C@H](COP(=O)([O-])OCC[N+](C)(C)C)OC(=O)CCC(C)(C)C(=O)Oc1ccc([N+](=O)[O-])cc1 [compound 1b]	0.11	more efficient suicide inhibitors	–	did increase P	little effect	–
CC1=C(CC/C(C)=C/CCC2=CC[C@H](C3=CC(=O)O[C@H]3O)O[C@H]2O)C(C)(C)CCC1 [manoalide]	–	–	–	–	–	mode of PLA2 inactivation (PLA2): time-dependent irreversible inactivation; inhibition of cobra venom PLA2 [5]: inhibitor of both cobra and bee venom phospholipase A2; anti-inflammatory activity [6]: anti-inflammatory activity in vivo; inhibition of bee venom PLA2 [7]: inhibitor of both cobra and bee venom phospholipase A2
